The results in this text go back to patent US20100130737A1, “Regulating Agent of GPR34 Receptor Function” (TAKEDA PHARMACEUTICAL COMPANY LIMITED, priority 2005, published 2010).

pIC50: −log10 of the molar value.

Data set [1] has as its system rat peritoneal mast cells. Description: Degranulation inhibiting activity in rat peritoneal mast cells (β-hexosaminidase release). Format: cell-based. As to conditions: 10 μM compound; co-stimulation with 3 μM LysoPS and 100 ng/ml DNP-BSA = 100%, spontaneous degranulation = 0%. The procedure:
Ice-cooled mast cell medium (hereunder called MCM: 150 mM NaCl, 3.7 mM KCl, 3.0 mM NaH2PO4, 3.5 mM KH2PO4, 5.6 mM (D)-Glucose, 0.1% bovine serum albumin (BSA), 0.1% gelatin, 10 U/ml heparin, pH 6.8) was injected intraperitoneally into rats, about 40 ml per rat, the abdomens were massaged for about 2 minutes and then opened along the median line, and ascites was collected. The collected ascites were filtered with a cell strainer (Becton Dickinson) and centrifuged for 7 minutes at 50×g, and the precipitated cells were suspended in MCM and then centrifuged again for 7 minutes at 50×g. The precipitated cells were suspended in 5 ml of MCM, layered over 2 ml of 32% (w/v) BSA solution (dissolved in 0.9% NaCL), and left for 20 minutes at room temperature. This was centrifuged for 15 minutes at room temperature at 300×g, the cells between the MCM and BSA solution were discarded, and the precipitated cells were suspended in MCM and washed twice by being centrifuged for 5 minutes at 300×g. The precipitated cells were suspended in assay buffer (150 mM NaCl, 3.7 mM KCl, 3.0 mM NaH2PO4, 3.5 mM KH2PO4, 0.9 mM CaCl2, 5.6 mM (D)-Glucose, 0.01% BSA, pH 6.8), and these cells were used in the following test.
RPMC cells suspended in assay buffer were passively sensitized by adding 10 μg/ml of monoclonal mouse anti-DNP-IgE (Seikagaku) and leaving them for 30 minutes on ice. After 5 minutes of centrifugation at 300×g, the precipitated cells were washed 3 times with assay buffer. The RPMC cells suspended in assay buffer were dispensed on 96-well V-bottom plates, 2×10^4 cells per well. The assay was performed with n=3 under each set of reaction conditions. The plates were maintained for 5 minutes at 37° C., the test compound was added, and after 15 minutes lysoPS (Sigma) was added to a final concentration of 3 μM and DNP-BSA (Calbiochem) to a final concentration of 100 ng/ml for a final capacity of 200 and left on a water bath at 37° C. After 20 minutes, the plate was ice cooled to stop RPMC activation, followed by 5 minutes of centrifugation at 300×g, and β-hexosaminidase activity in the supernatant was measured using 4-methylumbelliferyl-2-acetamido-2-deoxy-β-D-glucopyranoside (Wako Pure Chemical) degradation as the indicator.

The target of a further data set is human GPR34 (Homo sapiens, UniProt Q9UPC5). Description: Human GPR34 antagonist activity indicated by changes in intracellular calcium concentration (FLIPR). The data set is classed as cell-based. Set-up: expressed in transfected cells; host or cells: CHO cells (human GPR34CHO line) stably transfected with pCR3.1 human lung Gα16. As to conditions: CHO cells expressing human GPR34/Gα16, against 2 μM lysoPS final concentration, Fluo-3AM. On the procedure: CHO cells expressing human GPR34/Gα were diluted to 3×10^4/100 μl in cell culture medium [nucleic acid-free Minimum Essential Alpha Medium (Invitrogen) containing 10% dialyzed fetal bovine serum (Invitrogen) 0.5 mg/ml Geneticin (Invitrogen), penicillin and streptomycin (Invitrogen)], dispensed 100 μl per well into a Black walled 96-well plate (Costar), and cultured overnight in a CO2 incubator. Changes in intracellular calcium concentration were measured with a FLIPR (Molecular Device) by the methods described below.
Chain of human GPR34 (Q9UPC5 whole entry): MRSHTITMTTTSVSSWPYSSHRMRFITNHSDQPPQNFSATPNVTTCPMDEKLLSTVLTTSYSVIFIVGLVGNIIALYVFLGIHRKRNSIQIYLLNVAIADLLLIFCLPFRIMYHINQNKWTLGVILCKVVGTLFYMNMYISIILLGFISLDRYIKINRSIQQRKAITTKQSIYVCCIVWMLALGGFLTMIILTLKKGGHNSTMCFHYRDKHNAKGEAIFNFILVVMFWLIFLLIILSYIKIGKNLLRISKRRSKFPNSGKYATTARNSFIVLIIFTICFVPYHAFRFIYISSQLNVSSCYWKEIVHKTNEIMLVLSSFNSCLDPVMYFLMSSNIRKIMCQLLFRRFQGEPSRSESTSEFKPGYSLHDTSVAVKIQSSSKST
50 μg of Fluo-3AM (Dojindo) was dissolved in 21 μl of DMSO (Dojindo), an equal amount of 20% pluronic acid (Molecular Probes) was added and mixed, and this was added to 10.6 ml of assay buffer [prepared by adding 20 ml of 1 M HEPES (pH 7.4, Dojindo) to HBSS (Invitrogen), and then adding 10 ml of a solution obtained by dissolving 710 mg of Probenecid (Sigma) in 5 ml of 1 N NaOH and then adding and mixing 5 ml of the HBSS/HEPES solution)] with 105 μl of fetal bovine serum added thereto to prepare a fluorescent dye solution. The medium was removed from the cell plate, 100 μl per well of the fluorescent dye solution was immediately poured in, and the cells were cultured for 1 hour in a CO2 incubator to incorporate the fluorescent dye into the cells. After culture, the cells were washed with the aforementioned assay buffer. The compound was dissolved in DMSO (Wako Pure Chemical), diluted with DMSO as necessary, added to the aforementioned assay buffer to the target concentration and poured into the plate. To measure antagonist activity, 8 μM lysophosphatidyl serine (lysoPS, Alexis) solution (2 μM final concentration during reaction) was poured into the plate, which was set in the FLIPR. Following these preliminaries, the agonist effect was measured in the FLIPR by measuring changes in intracellular calcium concentration up to 180 seconds after addition of the sample, and after 200 seconds lysoPS was added and the antagonist effect was measured. In the case of the agonist effect, the EC50 value of the added compound was calculated from the dose reaction curve using changes in fluorescent strength from 0 to 180 seconds after the start of the reaction. In the case of the antagonist effect, the IC50 was calculated from the dose reaction curve using changes in maximum fluorescent strength after 200 to 380 seconds of reaction time. The data was analyzed using “GraphPad PRISM4”.

For `COC(=O)CC(=O)NC1(C(=O)O)Cc2ccc(-c3ccc(Cl)cc3)cc2C1` (stereo not shown) [Example B13], the “degranulation of rat peritoneal mast cells due to LysoPS and DNP-BSA stimulation” value (shortened to “degranulation”) in data set [1] stood at 10%.

With `O=C(Cc1ccc(OCc2ccccc2)cc1)NC1(C(=O)O)Cc2ccc(-c3ccc(Cl)cc3)cc2C1` (stereo not shown) [Example B174, 2-({[4-(Benzyloxy)phenyl]acetyl}amino)-5-(4-chlorophenyl)indan-2-carboxylic acid], the “degranulation” value in data set [1] is on record as 8%.

The compound `Cc1c(C(=O)N[C@@H](Cc2ccc(OCc3ccccc3)cc2)C(=O)O)oc2cc(-c3ccc(Cl)cc3)ccc12` [Example C115, O-Benzyl-N-{[6-(4-chlorophenyl)-3-methyl-1-benzofuran-2-yl]carbonyl}-L-tyrosine] showed a melting point of 143 to 144 °C. Also, in data set [1], the “degranulation” value was determined as 20%.

Take `CCCOc1ccc(-c2ccc3sc(C(=O)N[C@@H](Cc4ccc(OCc5ccc(F)cc5)cc4)C(=O)O)cc3c2)cc1` [Example C131, O-(4-Fluorobenzyl)-N-{[5-(4-propoxyphenyl)-1-benzothiophene-2-yl]carbonyl}tyrosine]: the melting point lay within 211 to 212 °C. In addition, the pIC50 at human GPR34 is no less than 6.00. Also, the “degranulation” value in data set [1] worked out at 10.2%.

For `O=C(N[C@@H](Cc1ccc(OCc2ccc(F)cc2)cc1)C(=O)O)c1cc2cc(-c3ccc(Cl)cc3)ccc2s1` [Example C133, N-{[5-(4-Chlorophenyl)-1-benzothiophene-2-yl]carbonyl}-O-(4-fluorobenzyl)tyrosine], the melting point was 189 to 190 °C. Also, the pIC50 on human GPR34 is no less than 6.00. The “degranulation” value in data set [1] amounted to 12.4%.

For the compound `O=C(N[C@@H](Cc1ccc(OCc2ccc(F)cc2)cc1)C(=O)O)c1cc2ccc(-c3ccc(Cl)cc3)cc2o1` [Example C157, N-{[6-(4-Chlorophenyl)-1-benzofuran-2-yl]carbonyl}-O-(4-fluorobenzyl) tyrosine], the melting point was in the range of 166 to 168 °C. Further, the pIC50 at human GPR34 was no less than 6.00. In addition, the “degranulation” value in data set [1] came out at 4.8%.

`O=C(N[C@@H](Cc1ccc(OCc2ccccc2)cc1)C(=O)O)c1cn2cccc(OCc3ccc(Cl)cc3)c2n1` [Example E28, O-Benzyl-N-({8-[(4-chlorobenzyl)oxy]imidazo[1,2-a]pyridin-2-yl}carbonyl)tyrosine] displayed a melting point of 210 °C. Also, the negative logarithm of the IC50 (pIC50) at human GPR34 was no less than 6.00.

`O=C(N[C@@H](Cc1ccc(OCc2ccccc2)cc1)C(=O)O)c1cn2nc(/C=C/c3ccc(Cl)cc3)ccc2n1` [Example E29, O-Benzyl-N-({6-[(E)-2-(4-chlorophenyl)ethenyl]imidazo[1,2-b]pyridazin-2-yl}carbonyl)tyrosine] yielded a melting point of 256 to 257 °C. Besides, the negative logarithm of the IC50 (pIC50) on human GPR34 is no less than 6.00.

For the compound `O=C(N[C@@H](Cc1ccc(OCc2ccccc2)cc1)C(=O)O)c1nc2ccc(-c3ccc(Cl)cc3)cn2c1Cl` [Example E37, O-Benzyl-N-{[3-chloro-6-(4-chlorophenyl)imidazo[1,2-a]pyridin-2-yl]carbonyl}tyrosine], the melting point fell in the range of 242 to 244 °C. Further, the negative logarithm of the IC50 (pIC50) at human GPR34 is no less than 6.00.

For the compound `O=C(N[C@@H](Cc1ccc(OCc2ccccc2)cc1)C(=O)O)c1cn2cc(/C=C/c3ccc(Cl)cc3)ccc2n1` [Example E41, O-Benzyl-N-({6-[(E)-2-(4-chlorophenyl)ethenyl]imidazo[1,2-a]pyridin-2-yl}carbonyl)tyrosine], the melting point lay within 267 to 270 °C. Also, on human GPR34, the pIC50 is no less than 6.00.

In turn, `Cc1ccc(/C=C/c2ccc3nc(C(=O)N[C@@H](Cc4ccc(OCc5ccccc5)cc4)C(=O)O)cn3c2)cc1` [Example E42, O-Benzyl-N-({6-[(E)-2-(4-methylphenyl)ethenyl]imidazo[1,2-a]pyridin-2-yl}carbonyl) tyrosine] returned a melting point of 266 to 267 °C. For the same compound, the negative logarithm of the IC50 (pIC50) on human GPR34 was no less than 6.00.

As to `CC(C)Oc1ccc(-c2ccc3nc(C(=O)N[C@@H](Cc4ccc(OCc5ccccc5)cc4)C(=O)O)cn3c2)cc1` [Example E45, O-Benzyl-N-{[6-(4-isopropoxyphenyl)imidazo[1,2-a]pyridin-2-yl]carbonyl}tyrosine], the melting point is 263 °C (dec.). In addition, the pIC50 at human GPR34 was no less than 6.00.

The compound `O=C(N[C@@H](Cc1ccc(OCc2ccccc2F)cc1)C(=O)O)c1cn2ccc(-c3ccc(Cl)cc3)cc2n1` [Example E47, N-{[7-(4-Chlorophenyl)imidazo[1,2-a]pyridin-2-yl]carbonyl}-O-(2-fluorobenzyl)tyrosine] came in with a melting point of 250 to 252 °C. For the same compound, the pIC50 on human GPR34 is no less than 6.00.

The compound `O=C(N[C@@H](Cc1ccc(OCc2cccc(F)c2)cc1)C(=O)O)c1cn2ccc(-c3ccc(Cl)cc3)cc2n1` [Example E48, N-{[7-(4-Chlorophenyl)imidazo[1,2-a]pyridin-2-yl]carbonyl}-O-(3-fluorobenzyl)tyrosine] registered a melting point of 248 to 250 °C. In addition, the pIC50 on human GPR34 was no less than 6.00.

As for `O=C(N[C@@H](Cc1ccc(OCc2ccc(F)cc2)cc1)C(=O)O)c1cn2ccc(-c3ccc(Cl)cc3)cc2n1` [Example E49, N-{[7-(4-Chlorophenyl)imidazo[1,2-a]pyridin-2-yl]carbonyl}-O-(4-fluorobenzyl)tyrosine], the melting point was in the range of 255 to 257 °C. Besides, the negative-log IC50 (pIC50) at human GPR34 was no less than 6.00.

With `CN(C(=O)c1cn2ccc(-c3ccc(Cl)cc3)cc2n1)[C@@H](Cc1ccc(OCc2ccccc2)cc1)C(=O)O` [Example E51, O-Benzyl-N-{[7-(4-chlorophenyl)imidazo[1,2-a]pyridin-2-yl]carbonyl}-N-methyltyrosine], the melting point was 222 °C. Moreover, the pIC50 at human GPR34 is no less than 6.00. Also, the “degranulation” value in data set [1] is 5.0%.

For the compound `O=C(N[C@@H](Cc1ccc(OCc2ccccc2)cc1)C(=O)O)c1cn2nc(SCc3ccccc3)ccc2n1` [Example E54, O-Benzyl-N-{[6-(benzylthio)imidazo[1,2-b]pyridazine-2-yl]carbonyl}tyrosine], the melting point is 178 to 179 °C. Also, the negative-log IC50 (pIC50) at human GPR34 is no less than 6.00.

Turning to `O=C(NC(Cc1ccc(OCc2ccccc2)cc1)C(=O)O)c1cn2cc(CCc3ccccc3)ccc2n1` (stereo not shown) [Example E57, O-Benzyl-N-{[6-(2-phenethyl)imidazo[1,2-a]pyridin-2-yl]carbonyl}tyrosine], the melting point is 239 °C (dec.). For the same compound, the “degranulation” value in data set [1] came out at 8.3%.

`N#Cc1ccc(COc2ccc(C[C@H](NC(=O)c3cn4ccc(-c5ccc(Cl)cc5)cc4n3)C(=O)O)cc2)cc1` [Example E64, N-{[7-(4-Chlorophenyl)imidazo[1,2-a]pyridin-2-yl]carbonyl}-O-(4-cyanobenzyl)tyrosine]: the melting point is 263 °C. Moreover, the negative logarithm of the IC50 (pIC50) on human GPR34 is no less than 6.00.

As a reminder, the melting point is the temperature, or range, at which the solid turns liquid. For orientation: pIC50 means the negative decadic logarithm of the IC50, by convention in mol/L.
